Tests used:
Experiment in all cases: Eurofins kinase selectivity profile against 380 other human recombinant kinases (Table S2)
Assay type in all cases: biochemical
[1] = molecular target: T1, 380 human recombinant protein kinases (Homo sapiens, UniProt O75914); conditions: PAK3(h), read-out: Inhibition rate
T1 construct: purchased Eurofins (Celle Lévescault)
How it was run: (§1)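 Profiling against 380 human recombinant kinases carried out by Eurofins at various compound concentrations.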

[2] = molecular target: T2, 380 human recombinant protein kinases (Homo sapiens, UniProt P08069); conditions: IGF-1R(h), read-out: Inhibition rate
T2 construct: purchased Eurofins (Celle Lévescault)
How it was run: as §1

[3] = molecular target: T3, 380 human recombinant protein kinases (Homo sapiens, UniProt P35626); conditions: GRK3(h), read-out: Inhibition rate
T3 construct: purchased Eurofins (Celle Lévescault)
T3 sequence (P35626 1-688): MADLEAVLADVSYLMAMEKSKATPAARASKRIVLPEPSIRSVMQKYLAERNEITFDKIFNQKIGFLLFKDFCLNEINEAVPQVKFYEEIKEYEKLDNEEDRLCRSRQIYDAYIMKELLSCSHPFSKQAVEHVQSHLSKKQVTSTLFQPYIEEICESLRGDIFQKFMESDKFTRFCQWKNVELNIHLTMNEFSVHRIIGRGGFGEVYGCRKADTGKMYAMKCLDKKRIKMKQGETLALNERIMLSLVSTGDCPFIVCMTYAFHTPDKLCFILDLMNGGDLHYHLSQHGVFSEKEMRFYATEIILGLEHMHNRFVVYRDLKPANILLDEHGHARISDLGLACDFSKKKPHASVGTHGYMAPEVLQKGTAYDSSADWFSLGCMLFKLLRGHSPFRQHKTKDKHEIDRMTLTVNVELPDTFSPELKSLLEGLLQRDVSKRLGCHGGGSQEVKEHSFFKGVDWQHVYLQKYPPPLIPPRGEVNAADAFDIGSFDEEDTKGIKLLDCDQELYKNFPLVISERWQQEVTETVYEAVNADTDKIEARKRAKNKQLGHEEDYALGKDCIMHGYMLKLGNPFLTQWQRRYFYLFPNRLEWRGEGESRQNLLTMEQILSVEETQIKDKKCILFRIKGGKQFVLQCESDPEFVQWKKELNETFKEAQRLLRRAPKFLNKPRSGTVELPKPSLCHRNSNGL
How it was run: as §1

[4] = molecular target: T4, 380 human recombinant protein kinases (Homo sapiens, UniProt P43405); conditions: Syk(h), read-out: Inhibition rate (%)
T4 construct: purchased Eurofins (Celle Lévescault)
How it was run: as §1

[5] = molecular target: T5, 380 human recombinant protein kinases (Homo sapiens, UniProt P51617); conditions: IRAK1(h), read-out: Inhibition rate
T5 construct: purchased Eurofins (Celle Lévescault)
T5 sequence (P51617 whole entry): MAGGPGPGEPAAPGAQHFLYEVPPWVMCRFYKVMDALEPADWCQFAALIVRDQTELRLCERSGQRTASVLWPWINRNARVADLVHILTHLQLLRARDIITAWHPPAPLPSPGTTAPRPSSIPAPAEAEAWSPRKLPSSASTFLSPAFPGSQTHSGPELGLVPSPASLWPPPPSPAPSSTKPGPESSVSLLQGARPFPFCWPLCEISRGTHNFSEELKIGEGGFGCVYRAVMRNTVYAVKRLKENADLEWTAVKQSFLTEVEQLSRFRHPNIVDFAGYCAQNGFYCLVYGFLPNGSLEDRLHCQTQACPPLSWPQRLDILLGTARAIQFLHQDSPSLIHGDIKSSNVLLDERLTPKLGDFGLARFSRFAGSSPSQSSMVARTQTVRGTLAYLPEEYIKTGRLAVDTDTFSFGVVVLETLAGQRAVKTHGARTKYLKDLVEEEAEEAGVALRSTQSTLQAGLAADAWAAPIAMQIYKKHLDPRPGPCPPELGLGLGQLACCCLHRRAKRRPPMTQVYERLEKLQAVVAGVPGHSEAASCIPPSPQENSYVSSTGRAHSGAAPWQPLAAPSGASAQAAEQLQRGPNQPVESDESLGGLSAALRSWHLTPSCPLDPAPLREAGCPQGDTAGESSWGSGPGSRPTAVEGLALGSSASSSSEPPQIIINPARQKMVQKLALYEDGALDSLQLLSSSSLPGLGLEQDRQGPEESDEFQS
How it was run: as §1

[6] = molecular target: T6, 380 human recombinant protein kinases (Homo sapiens, UniProt P54764); conditions: EphA4(h), read-out: Inhibition rate
T6 construct: purchased Eurofins (Celle Lévescault)
T6 sequence (P54764 20-986): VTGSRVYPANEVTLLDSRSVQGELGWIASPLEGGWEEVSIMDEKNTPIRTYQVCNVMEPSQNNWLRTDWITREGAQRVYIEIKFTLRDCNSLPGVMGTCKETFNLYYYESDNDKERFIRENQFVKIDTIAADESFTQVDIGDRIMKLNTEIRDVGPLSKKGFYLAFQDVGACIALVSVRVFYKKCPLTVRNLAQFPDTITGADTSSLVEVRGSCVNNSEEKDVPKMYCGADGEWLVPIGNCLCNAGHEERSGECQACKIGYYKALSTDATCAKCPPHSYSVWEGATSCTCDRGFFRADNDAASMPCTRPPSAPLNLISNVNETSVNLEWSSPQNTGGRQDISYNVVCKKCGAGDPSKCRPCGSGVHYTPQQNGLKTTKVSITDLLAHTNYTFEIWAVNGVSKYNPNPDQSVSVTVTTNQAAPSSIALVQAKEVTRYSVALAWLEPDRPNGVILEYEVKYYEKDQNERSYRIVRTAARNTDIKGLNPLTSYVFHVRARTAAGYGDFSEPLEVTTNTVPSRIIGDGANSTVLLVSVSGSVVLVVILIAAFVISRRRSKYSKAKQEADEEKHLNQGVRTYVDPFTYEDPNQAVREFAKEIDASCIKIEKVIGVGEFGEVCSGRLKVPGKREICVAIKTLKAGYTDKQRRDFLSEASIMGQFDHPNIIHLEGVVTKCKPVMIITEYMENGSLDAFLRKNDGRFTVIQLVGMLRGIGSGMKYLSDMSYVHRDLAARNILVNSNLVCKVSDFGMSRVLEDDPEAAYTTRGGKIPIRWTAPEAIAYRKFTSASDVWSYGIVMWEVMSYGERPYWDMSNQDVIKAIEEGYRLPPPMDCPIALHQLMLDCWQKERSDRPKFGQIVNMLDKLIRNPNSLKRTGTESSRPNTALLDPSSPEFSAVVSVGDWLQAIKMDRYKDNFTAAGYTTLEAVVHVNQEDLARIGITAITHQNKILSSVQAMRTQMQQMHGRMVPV
How it was run: as §1

[7] = molecular target: T7, 380 human recombinant protein kinases (Homo sapiens, UniProt Q00534); conditions: CDK6/cyclinD3(h), read-out: Inhibition rate
T7 construct: purchased Eurofins (Celle Lévescault)
T7 sequence (Q00534 whole entry): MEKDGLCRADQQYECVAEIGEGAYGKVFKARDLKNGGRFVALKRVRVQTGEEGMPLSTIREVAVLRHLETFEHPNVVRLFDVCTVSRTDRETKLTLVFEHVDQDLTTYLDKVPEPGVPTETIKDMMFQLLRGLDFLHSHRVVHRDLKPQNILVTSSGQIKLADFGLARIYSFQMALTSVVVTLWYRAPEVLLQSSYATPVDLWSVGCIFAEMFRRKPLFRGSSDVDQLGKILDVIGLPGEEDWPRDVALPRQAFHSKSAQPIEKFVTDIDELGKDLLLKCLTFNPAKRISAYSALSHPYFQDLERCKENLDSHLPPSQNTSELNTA
How it was run: as §1

[8] = molecular target: T8, 380 human recombinant protein kinases (Homo sapiens, UniProt Q06187); conditions: BTK(h), read-out: Inhibition rate
T8 construct: purchased Eurofins (Celle Lévescault)
T8 sequence (Q06187 whole entry): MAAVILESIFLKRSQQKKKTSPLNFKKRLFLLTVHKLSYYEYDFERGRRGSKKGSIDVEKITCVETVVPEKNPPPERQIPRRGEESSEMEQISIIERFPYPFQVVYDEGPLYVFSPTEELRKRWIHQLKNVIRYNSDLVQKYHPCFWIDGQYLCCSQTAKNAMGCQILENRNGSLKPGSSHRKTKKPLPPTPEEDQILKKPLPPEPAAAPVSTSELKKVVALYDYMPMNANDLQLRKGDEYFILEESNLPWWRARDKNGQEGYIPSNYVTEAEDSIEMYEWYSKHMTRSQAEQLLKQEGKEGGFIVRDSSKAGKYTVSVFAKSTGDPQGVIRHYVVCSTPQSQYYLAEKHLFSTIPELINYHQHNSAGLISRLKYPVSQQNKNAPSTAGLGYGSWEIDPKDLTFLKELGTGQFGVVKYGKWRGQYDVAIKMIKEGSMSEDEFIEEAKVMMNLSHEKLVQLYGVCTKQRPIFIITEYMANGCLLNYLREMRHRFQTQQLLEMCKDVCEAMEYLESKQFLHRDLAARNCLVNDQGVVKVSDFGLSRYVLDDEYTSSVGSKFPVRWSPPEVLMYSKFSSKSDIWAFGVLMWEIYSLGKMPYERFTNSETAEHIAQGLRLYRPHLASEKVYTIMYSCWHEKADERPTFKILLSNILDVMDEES
How it was run: as §1

[9] = molecular target: T9, 380 human recombinant protein kinases (Homo sapiens, UniProt Q14164); conditions: IKKε(h), read-out: Inhibition rate
T9 construct: purchased Eurofins (Celle Lévescault)
T9 sequence (Q14164 1-716): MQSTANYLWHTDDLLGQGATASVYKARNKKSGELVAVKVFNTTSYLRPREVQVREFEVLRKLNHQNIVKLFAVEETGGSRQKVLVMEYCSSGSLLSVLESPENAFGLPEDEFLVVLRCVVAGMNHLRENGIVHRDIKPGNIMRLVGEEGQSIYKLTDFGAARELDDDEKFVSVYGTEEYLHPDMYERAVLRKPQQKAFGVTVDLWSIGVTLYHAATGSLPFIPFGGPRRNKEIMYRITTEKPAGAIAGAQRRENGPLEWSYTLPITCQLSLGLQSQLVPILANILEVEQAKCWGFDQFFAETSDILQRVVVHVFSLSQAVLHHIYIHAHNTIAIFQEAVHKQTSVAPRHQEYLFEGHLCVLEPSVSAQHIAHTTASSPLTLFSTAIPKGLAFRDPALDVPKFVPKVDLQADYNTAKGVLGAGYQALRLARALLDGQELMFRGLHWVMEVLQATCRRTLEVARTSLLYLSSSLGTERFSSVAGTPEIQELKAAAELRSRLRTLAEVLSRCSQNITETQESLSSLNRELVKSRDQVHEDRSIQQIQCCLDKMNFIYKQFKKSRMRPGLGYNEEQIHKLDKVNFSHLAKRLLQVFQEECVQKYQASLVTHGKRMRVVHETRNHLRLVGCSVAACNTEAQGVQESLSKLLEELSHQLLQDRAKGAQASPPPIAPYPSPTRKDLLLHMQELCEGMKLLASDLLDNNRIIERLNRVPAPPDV
How it was run: as §1

[10] = molecular target: T10, 380 human recombinant protein kinases (Homo sapiens, UniProt Q16288); conditions: TrkC(h), read-out: Inhibition rate (%)
T10 construct: purchased Eurofins (Celle Lévescault)
T10 sequence (Q16288 32-839): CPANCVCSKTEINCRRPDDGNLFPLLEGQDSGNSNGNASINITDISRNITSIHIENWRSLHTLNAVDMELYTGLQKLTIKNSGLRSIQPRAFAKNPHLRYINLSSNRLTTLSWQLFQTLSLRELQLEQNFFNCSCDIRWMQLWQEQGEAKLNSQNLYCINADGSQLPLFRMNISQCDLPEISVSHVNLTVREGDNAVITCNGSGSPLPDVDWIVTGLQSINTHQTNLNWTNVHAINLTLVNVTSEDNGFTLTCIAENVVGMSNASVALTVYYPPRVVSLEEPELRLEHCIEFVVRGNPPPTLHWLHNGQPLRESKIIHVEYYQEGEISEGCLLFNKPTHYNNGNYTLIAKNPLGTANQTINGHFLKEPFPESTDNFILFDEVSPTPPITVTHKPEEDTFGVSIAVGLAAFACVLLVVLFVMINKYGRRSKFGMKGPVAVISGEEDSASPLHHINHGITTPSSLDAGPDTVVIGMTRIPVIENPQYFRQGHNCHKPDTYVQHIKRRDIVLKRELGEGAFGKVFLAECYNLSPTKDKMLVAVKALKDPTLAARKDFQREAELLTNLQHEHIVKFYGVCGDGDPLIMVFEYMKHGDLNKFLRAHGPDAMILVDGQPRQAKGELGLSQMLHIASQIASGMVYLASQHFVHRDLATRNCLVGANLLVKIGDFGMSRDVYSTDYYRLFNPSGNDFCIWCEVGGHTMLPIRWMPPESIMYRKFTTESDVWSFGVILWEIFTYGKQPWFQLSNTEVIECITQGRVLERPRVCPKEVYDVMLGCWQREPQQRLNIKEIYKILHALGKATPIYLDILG
How it was run: as §1

[11] = molecular target: T11, 380 human recombinant protein kinases (Homo sapiens, UniProt Q9H4A3); conditions: WNK1(h), read-out: Inhibition rate (%)
T11 construct: purchased Eurofins (Celle Lévescault)
How it was run: as §1

T1 sequence (O75914 whole entry): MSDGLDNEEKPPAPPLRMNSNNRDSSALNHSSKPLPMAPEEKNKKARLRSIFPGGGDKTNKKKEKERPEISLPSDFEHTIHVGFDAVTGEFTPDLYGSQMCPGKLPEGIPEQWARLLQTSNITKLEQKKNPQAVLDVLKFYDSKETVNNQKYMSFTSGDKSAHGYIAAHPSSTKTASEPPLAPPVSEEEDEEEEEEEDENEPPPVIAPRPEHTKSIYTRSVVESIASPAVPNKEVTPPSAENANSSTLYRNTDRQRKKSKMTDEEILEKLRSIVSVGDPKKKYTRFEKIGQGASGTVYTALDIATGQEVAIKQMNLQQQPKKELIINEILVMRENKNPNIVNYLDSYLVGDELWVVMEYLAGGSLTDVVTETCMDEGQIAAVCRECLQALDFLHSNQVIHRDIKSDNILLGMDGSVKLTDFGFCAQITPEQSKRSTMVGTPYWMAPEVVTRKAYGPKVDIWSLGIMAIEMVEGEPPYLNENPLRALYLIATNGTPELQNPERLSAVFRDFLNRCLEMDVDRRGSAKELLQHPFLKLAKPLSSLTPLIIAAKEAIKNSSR

C=CC(=O)Nc1cc(-c2cc(-c3cc4c([nH]3)CCNC4=O)ccn2)ccc1OC(F)(F)F [compound 11] was tested, and the inhibition at 0.01 µM ([1]; 10 nM) was -4%, the inhibition at 0.1 µM ([1]; 100 nM) was 0% and the inhibition at 1 µM ([1]; 1000 nM) was -3%. For the same compound, the inhibition at 0.01 µM ([2]; 10 nM) was -3%, the inhibition at 0.1 µM ([2]; 100 nM) was -2% and the inhibition at 1 µM ([2]; 1000 nM) was -14%. It also gave an inhibition at 0.01 µM ([3]; 10 nM) of -3%, an inhibition at 0.1 µM ([3]; 100 nM) of -8% and an inhibition at 1 µM ([3]; 1000 nM) of -2%. It also gave an inhibition at 0.01 µM ([4]; 10 nM) of 5%, an inhibition at 0.1 µM ([4]; 100 nM) of -15% and an inhibition at 1 µM ([4]; 1000 nM) of -9%. It also gave an inhibition at 0.01 µM ([5]; 10 nM) of -1%, an inhibition at 0.1 µM ([5]; 100 nM) of 3% and an inhibition at 1 µM ([5]; 1000 nM) of 34%. It also gave an inhibition at 0.01 µM ([6]; 10 nM) of -1%, an inhibition at 0.1 µM ([6]; 100 nM) of 3% and an inhibition at 1 µM ([6]; 1000 nM) of -7%. The inhibition at 0.01 µM ([7]; 10 nM) was 2%, the inhibition at 0.1 µM ([7]; 100 nM) was 6% and the inhibition at 1 µM ([7]; 1000 nM) was -3%. For the same compound, the inhibition at 0.01 µM ([8]; 10 nM) was -4%, the inhibition at 0.1 µM ([8]; 100 nM) was 10% and the inhibition at 1 µM ([8]; 1000 nM) was 17%. It also gave an inhibition at 0.01 µM ([9]; 10 nM) of -2%, an inhibition at 0.1 µM ([9]; 100 nM) of -1% and an inhibition at 1 µM ([9]; 1000 nM) of 5%. The inhibition at 0.01 µM ([10]; 10 nM) was -3%, the inhibition at 0.1 µM ([10]; 100 nM) was 4% and the inhibition at 1 µM ([10]; 1000 nM) was -3%. For the same compound, the inhibition at 0.01 µM ([11]; 10 nM) was 6%, the inhibition at 0.1 µM ([11]; 100 nM) was 2% and the inhibition at 1 µM ([11]; 1000 nM) was 4%.

Source: paper PMC11233931, “Remodeling tumor‐associated macrophage for anti‐cancer effects by rational design of irreversible inhibition of mitogen‐activated protein kinase‐activated protein kinase 2” (MedComm, 2024)
